# Experimental data reported in patent publication US10131652B2, “Pyrimidinyloxy benzene derivatives as herbicides” (E. I. DU PONT DE NEMOURS AND COMPANY, priority 2014, dated 2018).
# Key:
# Experiment in all cases: Test D pre-/postemergence plant response
# Assay type in all cases: in vivo
# [1] = system: pigweed (Amaranthus retroflexus); conditions: Postemergence; for Plant response rating, Pigweed: scale 0 to 100, 0 no effect, 100 complete control
# Method in brief: (§1)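 Ratings were visual, 0 = no effect to 100 = complete control, taken against untreated controls after 13 to 15 days in a greenhouse. Chemicals, formulated in non-phytotoxic surfactant-containing solvent, went onto soil (loam/sand) at planting for preemergence, or onto 1- to 4-leaf plants (2–18 cm) for postemergence.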
# [2] = system: galium (catchweed bedstraw, Galium aparine); conditions: Postemergence; for Plant response rating, Galium: scale 0 to 100, 0 no effect, 100 complete control
# Method in brief: as §1
# [3] = system: morningglory (Ipomoea coccinea); conditions: Postemergence; for Plant response rating, Morningglory: scale 0 to 100, 0 no effect, 100 complete control
# Method in brief: as §1
# corn (Zea mays) = conditions: Postemergence; for Corn plant response rating: scale 0 to 100 (0 no effect, 100 complete control); for Plant response rating, Corn: scale 0 to 100, 0 no effect, 100 complete control
# Method in brief: as §1
# [4] = system: lambsquarters (Chenopodium album); conditions: Postemergence; for Plant response rating, Lambsquarters: scale 0 to 100, 0 no effect, 100 complete control
# Method in brief: as §1
# [5] = system: barnyardgrass (Echinochloa crus-galli); conditions: Postemergence; for Barnyardgrass plant response rating: scale 0 to 100 (0 no effect, 100 complete control); for Plant response rating, Barnyardgrass: scale 0 to 100, 0 no effect, 100 complete control
# Method in brief: as §1
# [6] = system: yellow nutsedge (Cyperus esculentus); conditions: Postemergence; for Plant response rating, Nutsedge, Yellow: scale 0 to 100, 0 no effect, 100 complete control
# Method in brief: as §1
# [7] = system: blackgrass (Alopecurus myosuroides); conditions: Postemergence; for Blackgrass plant response rating: scale 0 to 100 (0 no effect, 100 complete control); for Plant response rating, Blackgrass: scale 0 to 100, 0 no effect, 100 complete control
# Method in brief: as §1
# [8] = system: Italian ryegrass (Lolium multiflorum); conditions: Postemergence; for Plant response rating, Ryegrass, Italian: scale 0 to 100, 0 no effect, 100 complete control
# Method in brief: as §1
# [9] = system: ragweed (common ragweed, Ambrosia elatior); conditions: Postemergence; for Plant response rating, Ragweed: scale 0 to 100, 0 no effect, 100 complete control
# Method in brief: as §1
# [10] = system: winter wheat (Triticum aestivum); conditions: Postemergence; for Plant response rating, Wheat: scale 0 to 100, 0 no effect, 100 complete control
# Method in brief: as §1
# [11] = system: velvetleaf (Abutilon theophrasti); conditions: Postemergence; for Plant response rating, Velvetleaf: scale 0 to 100, 0 no effect, 100 complete control
# Method in brief: as §1
# [12] = system: large (Lg) crabgrass (Digitaria sanguinalis); conditions: Postemergence; for Crabgrass, Large plant response rating: scale 0 to 100 (0 no effect, 100 complete control); for Plant response rating, Crabgrass, Large: scale 0 to 100, 0 no effect, 100 complete control
# Method in brief: as §1
# [13] = system: johnsongrass (Sorghum halepense); conditions: Postemergence; for Plant response rating, Johnsongrass: scale 0 to 100, 0 no effect, 100 complete control
# Method in brief: as §1
# [14] = system: waterhemp (common waterhemp, Amaranthus rudis); conditions: Postemergence; for Plant response rating, Waterhemp: scale 0 to 100, 0 no effect, 100 complete control
# Method in brief: as §1
# [15] = system: giant foxtail (Setaria faberii); conditions: Postemergence; for Foxtail, Giant plant response rating: scale 0 to 100 (0 no effect, 100 complete control); for Plant response rating, Foxtail, Giant: scale 0 to 100, 0 no effect, 100 complete control
# Method in brief: as §1
# [16] = system: oilseed rape (Brassica napus); conditions: Postemergence; for Plant response rating, Oilseed Rape: scale 0 to 100, 0 no effect, 100 complete control
# Method in brief: as §1
# soybean (Glycine max) = conditions: Postemergence; for Plant response rating, Soybean: scale 0 to 100, 0 no effect, 100 complete control
# Method in brief: as §1
# [17] = 31 g ai/ha, scale 0 to 100 (0 no effect, 100 complete control)
smiles,measurement,setting,value
FC(F)(F)c1cc(-c2c(Cl)cccc2Oc2ncc(Cl)cn2)no1 [Compound 169],Pigweed plant response rating,[1]; [17],80
same,"Plant response rating, Pigweed",[1]; 62 g ai/ha,80
same,"Plant response rating, Pigweed",[1]; 125 g ai/ha,98
same,Galium plant response rating,[2]; [17],70
same,"Plant response rating, Galium",[2]; 62 g ai/ha,70
same,"Plant response rating, Galium",[2]; 125 g ai/ha,75
same,Morningglory plant response rating,[3]; [17],15
same,"Plant response rating, Morningglory",[3]; 62 g ai/ha,55
same,"Plant response rating, Morningglory",[3]; 125 g ai/ha,65
same,Corn plant response rating,corn (Zea mays); 16 g ai/ha,0
same,Corn plant response rating,corn (Zea mays); 31 g ai/ha,5
same,"Plant response rating, Corn",corn (Zea mays); 62 g ai/ha,10
same,"Plant response rating, Corn",corn (Zea mays); 125 g ai/ha,10
same,Lambsquarters plant response rating,[4]; [17],40
same,"Plant response rating, Lambsquarters",[4]; 62 g ai/ha,35
same,"Plant response rating, Lambsquarters",[4]; 125 g ai/ha,80
same,Barnyardgrass plant response rating,[5]; 16 g ai/ha,5
same,Barnyardgrass plant response rating,[5]; 31 g ai/ha,5
same,"Plant response rating, Barnyardgrass",[5]; 62 g ai/ha,5
same,"Plant response rating, Barnyardgrass",[5]; 125 g ai/ha,5
same,"Nutsedge, Yellow plant response rating",[6]; [17],0
same,"Plant response rating, Nutsedge, Yellow",[6]; 62 g ai/ha,0
same,"Plant response rating, Nutsedge, Yellow",[6]; 125 g ai/ha,5
same,Blackgrass plant response rating,[7]; 16 g ai/ha,0
same,Blackgrass plant response rating,[7]; 31 g ai/ha,0
same,"Plant response rating, Blackgrass",[7]; 62 g ai/ha,0
same,"Plant response rating, Blackgrass",[7]; 125 g ai/ha,25
same,"Ryegrass, Italian plant response rating",[8]; [17],0
same,"Plant response rating, Ryegrass, Italian",[8]; 62 g ai/ha,5
same,"Plant response rating, Ryegrass, Italian",[8]; 125 g ai/ha,15
same,Ragweed plant response rating,[9]; [17],5
same,"Plant response rating, Ragweed",[9]; 62 g ai/ha,25
same,"Plant response rating, Ragweed",[9]; 125 g ai/ha,35
same,Wheat plant response rating,[10]; [17],5
same,"Plant response rating, Wheat",[10]; 62 g ai/ha,10
same,"Plant response rating, Wheat",[10]; 125 g ai/ha,10
same,Velvetleaf plant response rating,[11]; [17],10
same,"Plant response rating, Velvetleaf",[11]; 62 g ai/ha,20
same,"Plant response rating, Velvetleaf",[11]; 125 g ai/ha,30
same,"Crabgrass, Large plant response rating",[12]; 16 g ai/ha,5
same,"Crabgrass, Large plant response rating",[12]; 31 g ai/ha,5
same,"Plant response rating, Crabgrass, Large",[12]; 62 g ai/ha,10
same,"Plant response rating, Crabgrass, Large",[12]; 125 g ai/ha,10
same,Johnsongrass plant response rating,[13]; [17],0
same,"Plant response rating, Johnsongrass",[13]; 62 g ai/ha,0
same,"Plant response rating, Johnsongrass",[13]; 125 g ai/ha,5
same,Waterhemp plant response rating,[14]; [17],90
same,"Plant response rating, Waterhemp",[14]; 62 g ai/ha,90
same,"Plant response rating, Waterhemp",[14]; 125 g ai/ha,90
same,"Foxtail, Giant plant response rating",[15]; 16 g ai/ha,0
same,"Foxtail, Giant plant response rating",[15]; 31 g ai/ha,5
same,"Plant response rating, Foxtail, Giant",[15]; 62 g ai/ha,25
same,"Plant response rating, Foxtail, Giant",[15]; 125 g ai/ha,55
same,Oilseed Rape plant response rating,[16]; [17],5
same,"Plant response rating, Oilseed Rape",[16]; 62 g ai/ha,10
same,"Plant response rating, Oilseed Rape",[16]; 125 g ai/ha,60
same,Soybean plant response rating,soybean (Glycine max); [17],5
same,"Plant response rating, Soybean",soybean (Glycine max); 62 g ai/ha,15
same,"Plant response rating, Soybean",soybean (Glycine max); 125 g ai/ha,25
